From ChEMBL document CHEMBL2412960, “Inhibition of Mycobacterium tuberculosis strains H37Rv and MDR MS-115 by a new set of C5 modified pyrimidine nucleosides” (Bioorg Med Chem, 2013)
≈ marks a conversion by molar mass, not a printed value. Calls of active or inactive are those of the source. The calls are words filed in the database; no cut-off is given here.

Tests used:
[1] = system: Mycobacterium tuberculosis; assay: Bacteriostatic activity against rifampicin, isoniazid, streptomycin, ethambutol and pyrazinamide-resistant Mycobacterium tuberculosis MS-115 assessed as growth inhibition; format: functional
[2] = system: Mycobacterium tuberculosis; assay: Bacteriostatic activity against rifampicin, isoniazid, streptomycin, ethambutol and pyrazinamide-resistant Mycobacterium tuberculosis MS-115 assessed as growth inhibition at 10 ug/mL relative to control; format: functional; settings: read-out: GI
[3] = system: Mycobacterium tuberculosis; assay: Bacteriostatic activity against rifampicin, isoniazid, streptomycin, ethambutol and pyrazinamide-resistant Mycobacterium tuberculosis MS-115 assessed as growth inhibition at 20 ug/mL relative to control; format: functional; settings: read-out: GI
[4] = system: Mycobacterium tuberculosis; assay: Bacteriostatic activity against rifampicin, isoniazid, streptomycin, ethambutol and pyrazinamide-resistant Mycobacterium tuberculosis MS-115 assessed as growth inhibition at 50 ug/mL relative to control; format: functional; settings: read-out: GI
[5] = system: Mycobacterium tuberculosis; assay: Bacteriostatic activity against rifampicin, isoniazid, streptomycin, ethambutol and pyrazinamide-resistant Mycobacterium tuberculosis MS-115 assessed as growth inhibition at 5 ug/mL relative to control; format: functional; settings: read-out: GI
[6] = system: Mycobacterium tuberculosis; assay: Bacteriostatic activity against rifampicin, isoniazid, streptomycin, ethambutol and pyrazinamide-resistant Mycobacterium tuberculosis MS-115 assessed as growth inhibition at 200 ug/mL relative to control; format: functional; settings: read-out: GI
[7] = system: Mycobacterium tuberculosis; assay: Bacteriostatic activity against rifampicin, isoniazid, streptomycin, ethambutol and pyrazinamide-resistant Mycobacterium tuberculosis MS-115 assessed as growth inhibition at 2 to 200 ug/mL relative to control; format: functional, organism-based
[8] = system: Mycobacterium tuberculosis; assay: Bacteriostatic activity against rifampicin, isoniazid, streptomycin, ethambutol and pyrazinamide-resistant Mycobacterium tuberculosis MS-115 assessed as growth inhibition at 2 ug/mL relative to control; format: functional; settings: read-out: GI

Compound `CCCCCCCCCCCCc1cn(Cc2cn([C@H]3C[C@H](O)[C@@H](CO)O3)c(=O)nc2N)nn1` has an MIC99 [1] of 10 µg/mL (≈ 21 µM), an inhibition of growth at 10 µg/mL [2] of 99% and an inhibition of growth at 20 µg/mL [3] of 100%. The inhibition of growth at 50 µg/mL [4] was 100%.
With `CCCCCCCCCCCCc1cn(Cc2cn([C@H]3C[C@H](O)[C@@H](CO)O3)c(=O)[nH]c2=O)nn1` the MIC99 [1] was 10 µg/mL (≈ 20.9 µM), the inhibition of growth at 5 µg/mL [5] was 90% and the inhibition of growth at 10 µg/mL [2] was 99%. It also gave an inhibition of growth at 20 µg/mL [3] of 99% and an inhibition of growth at 50 µg/mL [4] of 100%.
`CCCCCCCCCCCCOCc1cn([C@H]2C[C@H](N)[C@@H](CO)O2)c(=O)[nH]c1=O` gave an MIC99 [1] of 20 µg/mL (≈ 47 µM), an inhibition of growth at 20 µg/mL [3] of 100% and an inhibition of growth at 50 µg/mL [4] of 100%. The inhibition of growth at 200 µg/mL [6] was 100%.
For `CO[C@H]1/C=C/O[C@@]2(C)Oc3c(C)c(O)c4c(O)c(c(/C=N/N5CCN(C)CC5)c(O)c4c3C2=O)NC(=O)/C(C)=C\C=C\[C@H](C)[C@H](O)[C@@H](C)[C@@H](O)[C@@H](C)[C@H](OC(C)=O)[C@@H]1C` [RIFAMPIN], the MIC99 [1] was “inactive” and the “growth inhibition (GI)” value [7] was “inactive”.
With `CN[C@@H]1[C@H](O[C@H]2[C@H](O[C@H]3[C@H](O)[C@@H](O)[C@H](N=C(N)N)[C@@H](O)[C@@H]3N=C(N)N)O[C@@H](C)[C@]2(O)C=O)O[C@@H](CO)[C@H](O)[C@H]1O` the “growth inhibition (GI)” value [7] was “inactive”.
Compound `CCCCCCCCCCc1cn(Cc2cn([C@H]3C[C@H](O)[C@@H](CO)O3)c(=O)nc2N)nn1` has an MIC99 [1] of 50 µg/mL (≈ 111 µM), an inhibition of growth at 20 µg/mL [3] of 75% and an inhibition of growth at 50 µg/mL [4] of 100%.
`CC1COc2c(N3CCN(C)CC3)c(F)cc3c(=O)c(C(=O)O)cn1c23` (centres undefined) [OFLOXACIN] showed an MIC99 [1] of 2 µg/mL (≈ 5.53 µM) and an inhibition of growth at 2 µg/mL [8] of 100%.
In the case of `NNC(=O)c1ccncc1` [ISONIAZID], the MIC99 [1] is reported as “inactive” and the “growth inhibition (GI)” value [7] is reported as “inactive”.
In the case of `NC(=O)c1cnccn1`, the “growth inhibition (GI)” value [7] is reported as “inactive”.
`CCCCCCCCCCCCOCc1cn([C@H]2C[C@H](O)[C@@H](CO)O2)c(=O)[nH]c1=O` was tested, and the MIC99 [1] was 50 µg/mL (≈ 117 µM), the inhibition of growth at 2 µg/mL [8] was 50% and the inhibition of growth at 50 µg/mL [4] was 100%. For the same compound, the inhibition of growth at 200 µg/mL [6] was 100%.
`CC[C@@H](CO)NCCN[C@@H](CC)CO` was tested, and the “growth inhibition (GI)” value [7] was “inactive”.
`CCCCCCCCCCc1cn(Cc2cn([C@H]3C[C@H](O)[C@@H](CO)O3)c(=O)[nH]c2=O)nn1` showed an MIC99 [1] of 10 µg/mL (≈ 22.2 µM), an inhibition of growth at 5 µg/mL [5] of 75% and an inhibition of growth at 10 µg/mL [2] of 99%. The inhibition of growth at 20 µg/mL [3] was 100% and the inhibition of growth at 50 µg/mL [4] was 100%.
